Data taken from patent US10836789B2, “Inhibitors of glucocorticoid receptor” (ORIC Pharmaceuticals, Inc., priority 2016, dated 2020).

Columns and labels:
GR = biological target: T1, GR (Homo sapiens, UniProt P04150); test: GR luciferase antagonist assay (CHO/GR/MMTV Luciferase cells); assay type: cell-based; settings: 10 nM Dexamethasone final, 16-18 h
T1 construct: expressed in transfected cells; host or cells: CHO cells carrying GR and an MMTV-luciferase reporter
T1 sequence (P04150 1-777): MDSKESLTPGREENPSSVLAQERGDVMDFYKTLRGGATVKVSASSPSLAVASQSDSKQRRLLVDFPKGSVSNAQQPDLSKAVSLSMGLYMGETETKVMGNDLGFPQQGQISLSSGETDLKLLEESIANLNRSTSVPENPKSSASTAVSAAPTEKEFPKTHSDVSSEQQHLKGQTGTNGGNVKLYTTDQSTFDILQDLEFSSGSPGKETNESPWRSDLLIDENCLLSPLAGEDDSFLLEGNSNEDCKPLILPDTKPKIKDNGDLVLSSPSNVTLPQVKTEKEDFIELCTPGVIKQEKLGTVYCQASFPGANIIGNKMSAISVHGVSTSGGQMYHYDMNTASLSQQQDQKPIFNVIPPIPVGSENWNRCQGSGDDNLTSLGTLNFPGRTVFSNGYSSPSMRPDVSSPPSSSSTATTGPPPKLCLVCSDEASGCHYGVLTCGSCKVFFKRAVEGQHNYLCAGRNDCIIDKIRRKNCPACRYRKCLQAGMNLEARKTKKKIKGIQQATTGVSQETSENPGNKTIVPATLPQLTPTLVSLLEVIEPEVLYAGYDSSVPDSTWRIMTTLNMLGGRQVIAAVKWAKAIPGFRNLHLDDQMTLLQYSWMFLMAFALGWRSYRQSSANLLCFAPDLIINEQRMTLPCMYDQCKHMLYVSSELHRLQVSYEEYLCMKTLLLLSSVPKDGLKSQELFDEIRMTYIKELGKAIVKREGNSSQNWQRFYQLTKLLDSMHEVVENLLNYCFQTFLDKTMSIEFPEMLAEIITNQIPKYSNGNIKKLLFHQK
Protocol: Example A: […] GR Luciferase Assay Cell Line: CHO/GR/MMTV Luciferase Culture Media: DMEM (with phenol red)+10% FBS Assay Media: DMEM (without phenol red)+10% CSS A 1×10 cm plate of cells was split into 2×15 cm plates in Assay Media (CSS). After 4 days, the cells in the Assay Media were collected and counted. Antagonist Assay: 1.5×10^4 cells per well were plated in a 384-well white walled TC plate in 20 ul of Assay Media containing 12.5 nM Dexamethasone (final concentration=10 nM). The plates were covered with film to avoid evaporation and placed in a TC incubator. Media/drug dilutions were prepared in Assay Media in 96-well sterile plates. 100 ul of Assay Media was distributed in aliquots into 96-well plates with an 8-Channel pipette (20-200 ul). 0.5 ul of 1000× concentration of compounds were added to the plates with 8-Channel pipette (0.5-10 ul). The plates were shaken for 15 seconds to mix. The film was removed from the 384-well plates with assay cells. 5 ul of media/drug dilutions were added to appropriate wells. The plates were covered with film to avoid evaporation and placed in a TC incubator overnight. After 16-18 h in the incubator, the plates were removed and sat at room temperature for 10 minutes to equilibrate. The Reagent Dispenser was setup to distribute 25 ul aliquots of OneGlo Luciferase Reagent (at room temperature) to each well of the 384-well plate using standard cassette. After OneGlo was added to the plates, the plates were shaken briefly, then incubated in the dark at room temperature for about 3 minutes. The plates were read using a Tecan or Promega luminometer. The ability of the compounds disclosed herein to inhibit GR activity was quantified and the respective IC50 value was determined. Table 3 provides the cellular IC50 values of various substituted steroidal compounds disclosed herein.

AR = AR agonism assay in LNAR reporter cell line; assay type: cell-based; settings: LNAR cells (overexpressed AR, 4XARE-Luc), 10% CSS, 18-24 hrs; Mifepristone maximum response set to 1
Protocol: Example B: In Vitro AR Agonism Assay
The AR agonism assay was done in the LNAR reporter cell line which has overexpressed AR and 4XARE-Luc genes. This cell line is sensitive to even minor partial AR agonism activity in hormone-deprived media (CSS). The assays were done in RPMI (without phenol red)+10% CSS using 6000 LNAR cells/well in 384-well plates and compounds were incubated with cells in […] incubator for 18-24 hrs. OneGlo reagent (25 uL/well) was added and plates were read with luminometer within 3 minutes.
To gauge the AR partial agonism activity, Mifepristone is included as a standard in the assay. AR agonism assay results are quantified by determining the ratio of the maximum response of individual compounds to the maximum response of Mifepristone (arbitrarily set to 1). Values of Table 4 are reported as Relative Maximum Response to Mifepristone. This general trend of AR agonism was shown for the class of compounds described herein.

SMILES	IC50 (GR)	Relative Maximum Response to Mifepristone (AR)
CC(C)N(C)c1ccc([C@H]2C[C@@]3(C)[C@@H](CC[C@@]3(O)C#CC(C)(C)C)[C@@H]3CCC4=CC(=O)CC[C@@H]4[C@H]32)cc1 [Compound 2, (8R,9S,10R,11S,13S,14S,17S)-17-(3,3-Dimethylbut-1-yn-1-yl)-17-hydroxy-11-(4-(isopropyl(methyl)amino)phenyl)-13-methyl-1,2,6,7,8,9,10,11,12,13,14,15,16,17-tetradecahydro-3H-cyclopenta[a]phenanthren-3-one]	≤ 100 nM	A (A: ≤ 0.4)
CN1CCN(c2ccc([C@H]3C[C@@]4(C)[C@@H](CC[C@@]4(O)C#CC(C)(C)C)[C@@H]4CCC5=CC(=O)CC[C@@H]5[C@H]43)cc2)CC1 [Compound 20]	≤ 100 nM	A (A: ≤ 0.4)
CC#C[C@]1(O)CC[C@H]2[C@@H]3CCC4=CC(=O)CC[C@]4(C)[C@H]3[C@@H](c3ccc(N(C)C)c(F)c3)C[C@@]21C [Compound 32]	> 100 nM	A (A: ≤ 0.4)
CC(C)N(C)c1ccc([C@H]2C[C@@]3(C)[C@@H](CC[C@@]3(O)C#CC3CC3)[C@@H]3CCC4=CC(=O)CC[C@]4(C)[C@H]32)cc1 [Compound 21, (8S,9R,10R,11S,13S,14S,17S)-17-(Cyclopropylethynyl)-17-hydroxy-11-(4-(isopropyl(methyl)amino)phenyl)-10,13-dimethyl-1,2,6,7,8,9,10,11,12,13,14,15,16,17-tetradecahydro-3H-cyclopenta[a]phenanthren-3-one]	≤ 100 nM	A (A: ≤ 0.4)
CC(C)(C)C#C[C@]1(O)CC[C@H]2[C@@H]3CCC4=CC(=O)CC[C@@H]4[C@H]3[C@@H](c3ccc(N4CCCC4)cc3)C[C@@]21C [Compound 1, (8R,9S,10R,11S,13S,14S,17S)-17-(3,3-Dimethylbut-1-yn-1-yl)-17-hydroxy-13-methyl-11-(4-(pyrrolidin-1-yl)phenyl)-1,2,6,7,8,9,10,11,12,13,14,15,16,17-tetradecahydro-3H-cyclopenta[a]phenanthren-3-one]	≤ 100 nM	A (A: ≤ 0.4)
